Tests used:
Type in all cases: in vivo
[1] = system: redroot pigweed (Amaranthus retroflexus, AMARE); assay: Pre-emerge test, greenhouse herbicide activity screening; settings: rating scale 0-100, 14 days after application
How it was run: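 Compounds in acetone were track-sprayed at 187 l/ha, 15–1000 g ai/ha, onto sandy loam pots. Pre-emerge seeds were sown one day before spraying, with surface watering afterwards. Post-emerge plants were at the 2–3 leaf stage and sprayed with 0.25% v/v non-ionic surfactant. Injury was rated 0–100 at 14 days.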

[2] = system: barnyardgrass (Echinochloa crus-galli, ECHCG); assay: as above; settings: rating scale 0-100, 14 days after application
How it was run: (§1)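 Compounds in acetone were track-sprayed at 15-1000 g ai/ha (187 l/ha) on sandy loam pots: pre-emerge one day after seeding, post-emerge at 2-3 leaf stage with 0.25% v/v non-ionic surfactant. Phytotoxicity was rated 14 days later on a 0 (no damage) to 100 (complete death) scale.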

[3] = system: green foxtail (Setaria viridis, SETVI); assay: as above; settings: rating scale 0-100, 14 days after application
How it was run: as §1

[4] = system: ivyleaf morningglory (Ipomoea hederacea, IPOHE); assay: as above; settings: rating scale 0-100, 14 days after application
How it was run: as §1

[5] = system: johnsongrass (Sorghum halepense, SORHA); assay: as above; settings: rating scale 0-100, 14 days after application
How it was run: as §1

[6] = system: lambsquarters (Chenopodium album, CHEAL); assay: as above; settings: rating scale 0-100, 14 days after application
How it was run: as §1

[7] = system: large crabgrass (Digitaria sanguinalis, DIGSA); assay: as above; settings: rating scale 0-100, 14 days after application
How it was run: as §1

[8] = system: sicklepod (Cassia obtusifolia, CASOB); assay: as above; settings: rating scale 0-100, 14 days after application
How it was run: as §1

[9] = system: velvetleaf (Abutilon theophrasti, ABUTH); assay: as above; settings: rating scale 0-100, 14 days after application
How it was run: as §1

[10] = system: field corn (Zea mays L., var. Dekalb 535, CORN); assay: Pre-emerge test, crop safety; settings: rating scale 0-100, 14 days after application
How it was run: as §1

[11] = system: upland rice (Oryza sp., var. Tebonnet, RICE); assay: Pre-emerge test, crop safety; settings: rating scale 0-100, 14 days after application
How it was run: as §1

[12] = system: barnyardgrass (Echinochloa crus-galli, ECHCG); assay: Post-emerge test, greenhouse herbicide activity screening; settings: rating scale 0-100 (0 no damage, 100 complete death), 14 days after application
How it was run: (§2)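 Applied at 15–1000 g ai/ha from acetone in 187 l/ha spray volume. Post-emergence applications included 0.25% v/v non-ionic surfactant and reached plants sown 8–21 days before. Pre-emergence applications were incorporated by surface watering. Efficacy or crop damage was rated on a 0–100 scale after 14 days.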

[13] = system: common ragweed (Ambrosia artemisizfolia L., AMBEL); assay: as above; settings: rating scale 0-100 (0 no damage, 100 complete death), 14 days after application
How it was run: as §2

[14] = system: green foxtail (Setaria viridis, SETVI); assay: as above; settings: rating scale 0-100 (0 no damage, 100 complete death), 14 days after application
How it was run: as §2

[15] = system: ivyleaf morningglory (Ipomoea hederacea, IPOHE); assay: as above; settings: rating scale 0-100 (0 no damage, 100 complete death), 14 days after application
How it was run: as §2

[16] = system: johnsongrass (Sorghum halepense, SORHA); assay: as above; settings: rating scale 0-100 (0 no damage, 100 complete death), 14 days after application
How it was run: as §2

[17] = system: lambsquarters (Chenopodium album, CHEAL); assay: as above; settings: rating scale 0-100 (0 no damage, 100 complete death), 14 days after application
How it was run: as §2

[18] = system: large crabgrass (Digitaria sanguinalis, DIGSA); assay: as above; settings: rating scale 0-100 (0 no damage, 100 complete death), 14 days after application
How it was run: as §2

[19] = system: redroot pigweed (Amaranthus retroflexus, AMARE); assay: as above; settings: rating scale 0-100 (0 no damage, 100 complete death), 14 days after application
How it was run: as §2

[20] = system: sicklepod (Cassia obtusifolia, CASOB); assay: as above; settings: rating scale 0-100 (0 no damage, 100 complete death), 14 days after application
How it was run: as §2

[21] = system: velvetleaf (Abutilon theophrasti, ABUTH); assay: as above; settings: rating scale 0-100 (0 no damage, 100 complete death), 14 days after application
How it was run: as §2

[22] = system: field corn (Zea mays L., var. Dekalb 535, CORN); assay: Post-emerge test, crop safety; settings: rating scale 0-100 (0 no damage, 100 complete death), 14 days after application
How it was run: as §1

[23] = system: upland rice (Oryza sp., var. Tebonnet, RICE); assay: Post-emerge test, crop safety; settings: rating scale 0-100 (0 no damage, 100 complete death), 14 days after application
How it was run: as §1

COc1c(Cl)cc(F)c(-n2c(=O)cc(C(F)(F)F)n(C)c2=O)c1CC(Cl)C(=O)OCCC#N (stereo not shown) [14-29]
Pre-emerge herbicidal activity, phytotoxicity rating AMARE ([1]; 63 g ai/ha): 20
Pre-emerge herbicidal activity, phytotoxicity rating AMARE ([1]; 250 g ai/ha): 95
Pre-emerge herbicidal activity, phytotoxicity rating ECHCG ([2]; 63 g ai/ha): 0
Pre-emerge herbicidal activity, phytotoxicity rating ECHCG ([2]; 250 g ai/ha): 0
Pre-emerge herbicidal activity, phytotoxicity rating SETVI ([3]; 63 g ai/ha): 0
Pre-emerge herbicidal activity, phytotoxicity rating SETVI ([3]; 250 g ai/ha): 0
Pre-emerge herbicidal activity, phytotoxicity rating IPOHE ([4]; 63 g ai/ha): 0
Pre-emerge herbicidal activity, phytotoxicity rating IPOHE ([4]; 250 g ai/ha): 0
Pre-emerge herbicidal activity, phytotoxicity rating SORHA ([5]; 63 g ai/ha): 0
Pre-emerge herbicidal activity, phytotoxicity rating SORHA ([5]; 250 g ai/ha): 0
Pre-emerge herbicidal activity, phytotoxicity rating CHEAL ([6]; 63 g ai/ha): 0
Pre-emerge herbicidal activity, phytotoxicity rating CHEAL ([6]; 250 g ai/ha): 50
Pre-emerge herbicidal activity, phytotoxicity rating DIGSA ([7]; 63 g ai/ha): 0
Pre-emerge herbicidal activity, phytotoxicity rating DIGSA ([7]; 250 g ai/ha): 50
Pre-emerge herbicidal activity, phytotoxicity rating CASOB ([8]; 63 g ai/ha): 0
Pre-emerge herbicidal activity, phytotoxicity rating CASOB ([8]; 250 g ai/ha): 0
Pre-emerge herbicidal activity, phytotoxicity rating ABUTH ([9]; 63 g ai/ha): 0
Pre-emerge herbicidal activity, phytotoxicity rating ABUTH ([9]; 250 g ai/ha): 80
Pre-emerge phytotoxicity rating, crop damage CORN ([10]; 63 g ai/ha): 0
Pre-emerge phytotoxicity rating, crop damage CORN ([10]; 250 g ai/ha): 10
Pre-emerge phytotoxicity rating, crop damage RICE ([11]; 63 g ai/ha): 0
Pre-emerge phytotoxicity rating, crop damage RICE ([11]; 250 g ai/ha): 20
Post-emerge Herbicidal Activity, phytotoxicity rating ECHCG ([12]; Rate 63 g ai/ha): 100
Post-emerge Herbicidal Activity, phytotoxicity rating ECHCG ([12]; Rate 250 g ai/ha): 100
Post-emerge Herbicidal Activity, phytotoxicity rating AMBEL ([13]; Rate 63 g ai/ha): 100
Post-emerge Herbicidal Activity, phytotoxicity rating AMBEL ([13]; Rate 250 g ai/ha): 100
Post-emerge Herbicidal Activity, phytotoxicity rating SETVI ([14]; Rate 63 g ai/ha): 20
Post-emerge Herbicidal Activity, phytotoxicity rating SETVI ([14]; Rate 250 g ai/ha): 70
Post-emerge Herbicidal Activity, phytotoxicity rating IPOHE ([15]; Rate 63 g ai/ha): 80
Post-emerge Herbicidal Activity, phytotoxicity rating IPOHE ([15]; Rate 250 g ai/ha): 80
Post-emerge Herbicidal Activity, phytotoxicity rating SORHA ([16]; Rate 63 g ai/ha): 50
Post-emerge Herbicidal Activity, phytotoxicity rating SORHA ([16]; Rate 250 g ai/ha): 70
Post-emerge Herbicidal Activity, phytotoxicity rating CHEAL ([17]; Rate 63 g ai/ha): 30
Post-emerge Herbicidal Activity, phytotoxicity rating CHEAL ([17]; Rate 250 g ai/ha): 60
Post-emerge Herbicidal Activity, phytotoxicity rating DIGSA ([18]; Rate 63 g ai/ha): 70
Post-emerge Herbicidal Activity, phytotoxicity rating DIGSA ([18]; Rate 250 g ai/ha): 95
Post-emerge Herbicidal Activity, phytotoxicity rating AMARE ([19]; Rate 63 g ai/ha): 90
Post-emerge Herbicidal Activity, phytotoxicity rating AMARE ([19]; Rate 250 g ai/ha): 100
Post-emerge Herbicidal Activity, phytotoxicity rating CASOB ([20]; Rate 63 g ai/ha): 0
Post-emerge Herbicidal Activity, phytotoxicity rating CASOB ([20]; Rate 250 g ai/ha): 40
Post-emerge Herbicidal Activity, phytotoxicity rating ABUTH ([21]; Rate 63 g ai/ha): 50
Post-emerge Herbicidal Activity, phytotoxicity rating ABUTH ([21]; Rate 250 g ai/ha): 100
Post-emerge phytotoxicity rating CORN (crop damage) ([22]; Rate 63 g ai/ha): 15
Post-emerge phytotoxicity rating CORN (crop damage) ([22]; Rate 250 g ai/ha): 50
Post-emerge phytotoxicity rating RICE (crop damage) ([23]; Rate 63 g ai/ha): 0
Post-emerge phytotoxicity rating RICE (crop damage) ([23]; Rate 250 g ai/ha): 10

Source: patent publication US6355799B1, “Substituted benzene compounds, process for their preparation, and herbicidal and defoliant compositions containing them” (ISK Americas Incorporated, priority 1997, dated 2002)
